Assays:
[1] = tested on: RKO colon adenocarcinoma cells (RKOp27 induced); experiment: Alamar Blue cell viability assay on RKOp27 cells arrested by Ponasterone A induced p27Kip1 expression (cell cycle specific mode of action); assay type: cell-based; conditions: Homo sapiens, cells arrested by ectopic p27Kip1 induced with 10 μM Ponasterone A, 72 hours incubation, read-out: IC50 RKO p27 induced
Experimental: To determine the cell cycle specific mode of action, subclones of RKO colon adenocarcinoma cells (RKOp27 as described by Schmidt et al. in Oncogene 19, 2423-2429; 2000) are seeded into 96 well flat bottom plates at a density of 16000 cells per well in a volume of 50 μl per well in DMEM growth medium with 10% FCS containing 10 μM Ponasterone A. 24 hours after seeding the 50 μl each of the compound dilutions in DMEM medium are added into each well of the 96-well plate. Each compound dilution is tested as quadruplicates. Wells containing untreated control cells are filled with 50 μl DMEM medium containing 1% DMSO. The cells are then incubated with the substances for 72 hours at 37° C. in a humidified atmosphere containing 5% carbon dioxide. To determine the viability of the cells, 10 μl of an Alamar Blue solution (Biosource) are added and the fluorescence is measured at an extinction of 544 nm and an emission of 590 nm. For the calculation of the cell viability the emission value from untreated cells is set as 100% viability and the emission rates of treated cells are set in relation to the values of untreated cells. Viabilities are expressed as % values. Viability is compared of proliferating cells grown in the absence of the inducer Ponasterone A, versus viability of cells arrested by the expression of ectopic p27Kip1 induced by Ponasterone A.
Representative IC50 values for anti-proliferation/cytotoxicity determined in the aforementioned assays follow from the following table A, in which the numbers of the compound correspond to the numbers of the examples.

SMILES | melting point | IC50 [1]
COc1cc(OC)cc([C@@H]2c3[nH]c4cc(F)ccc4c3C[C@H]3C(=O)N(C)C(=S)N23)c1 (racemic) [Compound 6, (3aSR,10RS)-10-(3,5-Dimethoxy-phenyl)-7-fluoro-2-methyl-1-thioxo-1,2,3a,4,9,10-hexahydro-2,9,10a-triaza-cyclopenta[b]fluoren-3-one] | 199 to 202 °C | > 100 µM
COc1cc(OC)cc([C@@H]2c3sc4ccccc4c3C[C@H]3C(=O)N(C)C(=S)N23)c1 (racemic) [Compound 2, (3aSR,10RS)-10-(3,5-Dimethoxy-phenyl)-2-methyl-1-thioxo-1,2,4,10-tetrahydro-3aH-9-thia-2,10a-diaza-cyclopenta[b]fluoren-3-one] | 247 to 249 °C | > 85 µM
COc1cc(OC)cc([C@@H]2c3[nH]c4cccc(C)c4c3C[C@H]3C(=O)N(C)C(=S)N23)c1 (racemic) [Compound 7, (3aSR,10RS)-10-(3,5-Dimethoxy-phenyl)-2,5-dimethyl-1-thioxo-1,2,3a,4,9,10-hexahydro-2,9,10a-triaza-cyclopenta[b]fluoren-3-one] | 279 to 291 °C | > 100 µM
COc1cc(OC)cc([C@@H]2c3[nH]c4cc(C)ccc4c3C[C@H]3C(=O)N(C)C(=S)N23)c1 (racemic) [Compound 8, (3aSR,10RS)-10-(3,5-Dimethoxy-phenyl)-2,7-dimethyl-1-thioxo-1,2,3a,4,9,10-hexahydro-2,9,10a-triaza-cyclopenta[b]fluoren-3-one] | 216 to 218 °C | > 100 µM
CN1C(=O)[C@@H]2Cc3c([nH]c4ccccc34)[C@@H](c3cc(F)cc(F)c3)N2C1=S [Compound 4, (3aS,10R)-10-(3,5-Difluoro-phenyl)-2-methyl-1-thioxo-1,2,3a,4,9,10-hexahydro-2,9,10a-triaza-cyclopenta[b]fluoren-3-one] | 308 to 310 °C | > 100 µM
COc1cc(OC)cc([C@@H]2c3[nH]c4ccccc4c3C[C@H]3C(=O)N(C)C(=S)N23)c1 [Compound 1, (3aS,10R)-10-(3,5-Dimethoxy-phenyl)-2-methyl-1-thioxo-1,2,3a,4,9,10-hexahydro-2,9,10a-triaza-cyclopenta[b]fluoren-3-one] |  | > 100 µM
Cc1cc(C)cc([C@@H]2c3[nH]c4ccccc4c3C[C@H]3C(=O)N(C)C(=S)N23)c1 [Compound 5, (3aS,10R)-10-(3,5-Dimethyl-phenyl)-2-methyl-1-thioxo-1,2,3a,4,9,10-hexahydro-2,9,10a-triaza-cyclopenta[b]fluoren-3-one] | 252 to 257 °C | > 100 µM
CN1C(=O)[C@@H]2Cc3c([nH]c4ccccc34)[C@@H](c3cc(Cl)cc(Cl)c3)N2C1=S [Compound 3, (3aS,10R)-10-(3,5-Dichloro-phenyl)-2-methyl-1-thioxo-1,2,3a,4,9,10-hexahydro-2,9,10a-triaza-cyclopenta[b]fluoren-3-one] | 277 °C | > 100 µM

Reference: patent publication US20080125452A1, “Indolopyridines,Benzofuranopyridines and Benzothienopyridines” (ALTANA PHARMA AG, priority 2005, published 2008)
